Legend:
[1] = test system: HEK293; assay: Decay-time constant of ACh ([…])-evoked currents in the presence of 0.1 uM naltrexone in HEK293 cells; type: functional, Homo sapiens
[2] = test system: HEK293; assay: Decay-time constant of ACh ([…])-evoked currents in the presence of 0.3 uM naltrexone in HEK293 cells; type: functional, Homo sapiens
[3] = test system: HEK293; assay: Decay-time constant of ACh ([…])-evoked currents in the presence of 1 uM naltrexone in HEK293 cells; type: functional, Homo sapiens
[4] = test system: HEK293; assay: Decay-time constant of ACh ([…])-evoked currents in the presence of 10 uM naltrexone in HEK293 cells; type: functional, Homo sapiens
[5] = test system: HEK293; assay: Decay-time constant of ACh ([…])-evoked currents in the presence of 100 uM naltrexone in HEK293 cells; type: functional, Homo sapiens
[6] = test system: HEK293; assay: Decay-time constant of ACh ([…])-evoked currents in the presence of 30 uM naltrexone in HEK293 cells; type: functional, Homo sapiens
[7] = test system: HEK293; assay: Decay-time constant of ACh ([…])-evoked currents in the presence of 300 uM naltrexone in HEK293 cells; type: functional, Homo sapiens
[8] = test system: HEK293; assay: Decay-time constant of ACh (100 uM) -evoked currents in the absence of naltrexone in HEK293 cells; type: functional, Homo sapiens
[9] = test system: HEK293; assay: Decay-time constant of ACh ([…])-evoked currents in the presence of 3 uM naltrexone in HEK293 cells; type: functional, Homo sapiens
[10] = Increase in the charge carried by ACh- induced currents in CA1 pyramidal neurons of […] cultures by naltrexone (0.3 uM); type: functional, Pyramidal neuron
[11] = Increase in the charge carried by choline- induced currents in CA1 pyramidal neurons of […] cultures by naltrexone (0.3 uM); type: functional, Pyramidal neuron
[12] = Increase in the charge carried by ACh- induced currents in […] organotypic hippocampal cultures by naltrexone (0.3 uM); type: functional, Hippocampus
[13] = Increase in the charge carried by choline- induced currents in […] organotypic hippocampal cultures by naltrexone (0.3 uM); type: functional, Hippocampus
[14] = target: T1, Neuronal acetylcholine receptor subunit alpha-7 (Homo sapiens, UniProt P36544); assay: Blockage of Nicotinic acetylcholine receptor alpha-7 noncompetitively in cultured hippocampal neurons; type: tissue-based, Hippocampus
T1 sequence (P36544 whole entry): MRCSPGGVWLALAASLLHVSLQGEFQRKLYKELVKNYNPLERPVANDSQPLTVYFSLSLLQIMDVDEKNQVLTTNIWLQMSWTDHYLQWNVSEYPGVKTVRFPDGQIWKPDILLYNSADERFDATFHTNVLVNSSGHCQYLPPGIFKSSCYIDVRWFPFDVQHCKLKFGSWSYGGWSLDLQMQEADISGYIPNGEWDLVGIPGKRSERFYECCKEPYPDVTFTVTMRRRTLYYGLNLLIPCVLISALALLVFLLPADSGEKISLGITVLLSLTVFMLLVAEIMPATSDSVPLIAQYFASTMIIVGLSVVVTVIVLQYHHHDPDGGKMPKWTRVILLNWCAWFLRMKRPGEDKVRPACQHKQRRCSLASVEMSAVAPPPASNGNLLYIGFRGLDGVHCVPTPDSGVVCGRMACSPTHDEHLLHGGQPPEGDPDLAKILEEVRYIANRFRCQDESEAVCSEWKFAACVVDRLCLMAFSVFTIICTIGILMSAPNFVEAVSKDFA

[15] = target: T1, Neuronal acetylcholine receptor subunit alpha-7; assay: Blockage of Nicotinic acetylcholine receptor alpha-7 noncompetitively in hippocampal primary cultures; type: tissue-based, Hippocampus
[16] = target: T2, Neuronal acetylcholine receptor subunit alpha-4 (Rattus norvegicus, UniProt P09483); assay: Blockage of Nicotinic acetylcholine receptor alpha4-beta2 noncompetitively in CA1 stratum radiatum interneurons
T2 sequence (P09483 whole entry): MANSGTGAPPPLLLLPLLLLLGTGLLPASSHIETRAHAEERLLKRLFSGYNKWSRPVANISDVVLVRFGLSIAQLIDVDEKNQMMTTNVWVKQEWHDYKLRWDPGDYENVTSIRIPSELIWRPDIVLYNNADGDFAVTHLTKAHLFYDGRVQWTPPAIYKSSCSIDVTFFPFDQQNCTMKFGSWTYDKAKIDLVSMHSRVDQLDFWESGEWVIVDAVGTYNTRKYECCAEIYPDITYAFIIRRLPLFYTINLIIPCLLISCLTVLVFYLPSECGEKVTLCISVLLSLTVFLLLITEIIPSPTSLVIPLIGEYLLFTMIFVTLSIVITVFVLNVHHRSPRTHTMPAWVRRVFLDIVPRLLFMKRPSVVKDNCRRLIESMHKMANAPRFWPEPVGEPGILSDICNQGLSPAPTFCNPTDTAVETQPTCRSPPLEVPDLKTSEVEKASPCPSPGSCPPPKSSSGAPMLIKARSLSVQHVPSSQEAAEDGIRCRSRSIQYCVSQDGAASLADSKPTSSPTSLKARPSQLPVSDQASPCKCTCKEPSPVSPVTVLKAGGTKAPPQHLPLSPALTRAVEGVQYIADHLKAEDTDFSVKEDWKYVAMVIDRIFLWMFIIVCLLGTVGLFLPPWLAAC

[17] = target: T2, Neuronal acetylcholine receptor subunit alpha-4; assay: Blockage of Nicotinic acetylcholine receptor alpha4-beta2 noncompetitively in acute hippocampal slices; type: tissue-based, Hippocampus
[18] = target: T2, Neuronal acetylcholine receptor subunit alpha-4; assay: Blockage of Nicotinic acetylcholine receptor alpha4-beta2 noncompetitively in cultured hippocampal neurons; type: tissue-based, Hippocampus

Structure (SMILES) | Decay-time constant [1] | Decay-time constant [2] | Decay-time constant [3] | Decay-time constant [4] | Decay-time constant [5] | Decay-time constant [6] | Decay-time constant [7] | Decay-time constant [8] | Decay-time constant [9] | Increase [10] | Increase [11] | Increase [12] | Increase [13] | IC50 [14] | IC50 [15] | IC50 [16] | IC50 [17] | IC50 [18]
CC(=O)OCC[N+](C)(C)C [ACETYLCHOLINE] | 509.96 ms | 495.98 ms | 543.11 ms | 467.84 ms | 257.74 ms | 422.02 ms | 202.53 ms | 547.88 ms | 508.74 ms |  |  |  |  |  |  |  |  | 
O=C1CC[C@@]2(O)[C@H]3Cc4ccc(O)c5c4[C@@]2(CCN3CC2CC2)[C@H]1O5 [NALTREXONE] |  |  |  |  |  |  |  |  |  | 169% | 210% | 214% | 283% | 30 µM | 25 µM | 141 µM | 31 µM | 139 µM
